Results on 1 compound are retold here after US10968183B2, “Small molecule FIEL1 inhibitor in inflammatory and fibrotic lung injury” (UNIVERSITY OF PITTSBURGH—OF THE COMMONWEALTH SYSTEM OF …, priority 2015, dated 2021).

The subject of this assay is PIAS4. Nature of the assay: PIAS4 protein half-life study (cycloheximide) in MLE cells. Format: cell-based, murine. To be noted: compound 5 μM for 18 h; FIG. 15F. The text has this:
FIG. 9A. PIAS4 protein half-life study in MLE cells transfected with Empty plasmid or Ubiquitin plasmid. FIG. 9B. PIAS4 protein half-life study with MG132 or Leupeptin. FIG. 9C. Immunoblots showing levels of PIAS4 proteins and V5 after ectopic FIEL1 or UBE3B plasmid expression. FIG. 9D. Immunoblots showing levels of FIEL1 proteins after ectopic FIEL1 plasmid expression in MLE, HeLa, and 293T cells. FIG. 9E. Immunoblots showing levels of PIAS4 proteins and V5 after ectopic FIEL1 plasmid expression in HeLa and 293T cells. FIG. 9F. MLE cells were transfected with an inducible control or FIEL1 plasmid under control of exogenous doxycycline. Cells were treated with doxycycline in a dose dependent manner. Cells were then collected and cell lysates were immunoblotted for FIEL1 and PIAS4. FIG. 9G. MRC5 cells were exposed to TGFβ for 24 h before being assayed for PIAS4 and FIEL1 protein half-lives.
FIG. 15A. Diagram of the BC-1485 synthesis process. FIGS. 15B-15C. Docking studies of the lead compound, BC-1485, interacting with the FIEL1-HECT domain. FIG. 15D. MRC5 cells were treated with the compound at various doses; cells were also co-treated with TGFβ at 2 ng/ml. 18 h later, cells were collected and assayed for α-SMA expression. FIG. 15E. MRC5 cells were seeded in 35 mm glass bottom dishes before co-treatment with TGFβ at 2 ng/ml and BC-1480 or BC1485 at 5μM. FIG. 15F. PIAS4 protein half-life determination after BC-1480 or BC1485 treatment at 5μM for 18 h. FIG. 15G. PIAS4 and KIAA0317 mRNA analysis after BC1485 treatment for 18 h.
MLE cells were cultured in Dulbecco's Modified Eagle Medium-F12 (Gibco) supplemented with 10% fetal bovine serum (DMEM-10). 293T cells were cultured in Dulbecco's Modified Eagle Medium (Gibco) supplemented with 10% fetal bovine serum (DMEM-10). MRC5 cells were cultured in Eagle's Minimum Essential Medium (Gibco) supplemented with 10% fetal bovine serum (EMEM-10). For protein expression in MLE cells, nucleofection was used following Amaxa's protocol. For protein overexpression in 293T cells, Fugene6HD transfection reagents were used following the manufacturer's protocol. […]

With `CC(NC(=O)c1ccc(NS(=O)(=O)c2ccc3[nH]c(=O)[nH]c3c2)cc1)C(=O)N(C)C` (stereo not shown) [BC-1485], the PIAS4 protein half-life entry is given as “stabilized PIAS4 by extending its half-life”.
